Read-outs that look alike come from different tables or passages of the source.
Molecular target: T1, CCR1 (Homo sapiens, UniProt P32246)
T1 sequence (P32246 1-355): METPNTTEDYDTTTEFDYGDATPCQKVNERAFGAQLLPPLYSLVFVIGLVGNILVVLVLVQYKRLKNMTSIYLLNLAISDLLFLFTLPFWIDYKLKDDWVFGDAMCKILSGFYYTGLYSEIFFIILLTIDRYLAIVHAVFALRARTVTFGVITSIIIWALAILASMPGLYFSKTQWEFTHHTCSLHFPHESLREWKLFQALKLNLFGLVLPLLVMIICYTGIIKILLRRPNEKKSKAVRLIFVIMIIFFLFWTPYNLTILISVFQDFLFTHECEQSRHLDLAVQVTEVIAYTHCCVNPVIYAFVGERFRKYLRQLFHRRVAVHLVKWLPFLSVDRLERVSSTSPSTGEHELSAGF
Test: Membrane-based radioligand binding assay with [3H]-CCR2-RA-[R], U2OS membranes
Details: for Ki: [3H]CCR2-RA-[R] 6 nM, 25 °C
Procedure: Membrane-based radioligand binding assays: Assays were performed according to the published protocol.13 Radioligand binding assays were performed in a 100 µ L reaction volume containing varying concentrations (final concentrations: 0.001 – 10 µM) of compounds 23 and 5, 6 nM [3H]-CCR2-RA-[R] (specific activity 60.6 Ci mmol-1, custom labeled by Vitrax in Placentia, CA, USA), and 15 µg membrane protein, all diluted in assay buffer (50mM Tris-HCl, 5 mM MgCl2, 0.1% CHAPS, at pH 7.4). Membranes were obtained from Tango™ CCR1-bla or Tango™ CCR2-bla osteosarcoma (U2OS) cells stably expressing the human CCR1 ([…]) or human CCR2b (U2OS-CCR2) cells (Invitrogen, Carlsbad, CA, USA). Total binding was determined in the absence of competing ligand, while non -specific binding was determined in the presence of 10 µM CCR2-RA-[R]. After membrane addition, reaction mixtures were incubated for 2 h at 25 °C while shaking. After 2 h, reactions were terminated by harvesting through a 96 -well GF/C filter plate using a PerkinElmer Filtermate harvester (PerkinElmer, Groningen, NL) and ice -cold wash buffer (50mM Tris-HCl, 5 mM MgCl2, 0.1% CHAPS, at pH 7.4). Afterwards, filter plate was dried, and radioactivity was measured in a P-E-2450 Microbeta2 scintillation plate counter (PerkinElmer, Groningen, NL) after addition of 25 µL of Microscint scintillation cocktail (PerkinElmer, Groningen, NL). […]
Technologies) for 20 min. […]
Finally, the top 5% of the identified hits were subsequently docked to a homology model of CCR1 (vide infra). After visual examination of the obtained binding modes 24 hit compounds were identified for further investigation .
Molecular docking: For the docking studies in the course of our virtual screening campaign, the CCR1 protein was […]
27, 28 CCR1 structure was optimized using the Quickprep and structure preparation wizard in MOE 24 using CHARMM27 forcefield. The protein was saved in mol2 format and loaded in GOLD.25, 26 The amino acids defining the IABS were listed in a text file to define the docking cavity. 50 GA runs were performed for docking CCR2-RA-[R] (4-[R]) and SN_12 (43), with the generated solutions clustered based on their RMSD with the threshold set to 0.75 Å using the complete linkage method. Docking runs were performed using ChemScore. Flexibility of amino acids Lys63ICL1, Arg1313.50, Leu2406.36 and Arg3078.49 was taken in consideration in the docking runs, with conformational sampling of their side chains being done by the rotamer libraries implemented in GOLD.25, 26 For the docking studies with our ligand-linker conjugates (Figure S1), molecular ligand structures were geometry optimized as neutral molecules by means of Avogadro (Version 1.2.0)29 using the Universal Force Field (UFF) and the Steepest Decent Algorithm until convergence (ΔE = 0).
CCR113 was used for docking. The compounds were docked by means of AutoDock Vina 1.1.2.30, 31 An exhaustiveness value of 8 and a search space of 22 x 22 x 22 Å³ was applied around the unliganded intracellular allosteric binding site of CCR1. Twenty docking poses were generated for each ligand and inspected manually and according to the docking score.

[1] = read-out: Ki, CCR1 (radioligand)

CCR1 over CCR2 binding selectivity (radioligand) [fold] | Ki [1] [nM] | Ki (read-out: pKi, CCR1 (radioligand) (converted)) [nM] | Compound
33 | 117 | – | O=C(C1=C(O)C(=O)N(CCc2ccc(O)cc2)C1c1ccc(F)cc1)c1ccccc1 (racemic) [compound 23]
– | 18 | 15.8 | CC(=O)C1=C(O)C(=O)N(c2ccc(Br)cc2F)C1C1CCCCC1 (stereo not shown) [compound 5, reference compound]

Reference: paper PMC11249626, “Fluorophore-Labeled Pyrrolones Targeting the Intracellular Allosteric Binding Site of the Chemokine Receptor CCR1” (ACS Pharmacology & Translational Science, 2024)
